Test results taken from patent US20060058374A1, “Urotensin II receptor agents” (priority 2002, published 2006).

What was measured:
Serotonin 5HT6 = target: T1, Serotonin 5HT6 (Homo sapiens, UniProt P50406); assay: R-SAT assay, Serotonin 5HT6; type: cell-based; conditions: percent maximal activation relative to control compound
T1 construct: expressed in transfected cells; host or cells: NIH3T3
Method: (§1) The test compound of Formula III was screened according to a modification of the method described in U.S. Pat. No. 5,912,312. The method, herein referred to as Method 1, consists of the following:
(§2) Receptor Selection and Amplification (R-SAT) Assays.
(§3) R-SAT assays were performed with minor modifications from that previously described (6). Briefly, NIH3T3 cells were grown in tissue culture treated rollerbottles to 40-50% confluence. Cells were transfected for 12-16 hours with plasmid DNAs using superfect (Qiagen Inc.) as per manufacture's protocols. R-SAT's were generally performed with 10 μg/rollerbottle of receptor and 50 μg/rollerbottle of Beta-galactosidase plasmid DNA. All receptor and G-protein constructs used were in the PSI mammalian expression vector (Promega Inc.). The transfected cells were then trypsinized and frozen in DMEM containing 10% DMSO. Frozen cells were later thawed, plated at 10,000-40,000 cells per well of a 96 ½ area plate that contained drug. […] Media was then removed from the plates and marker gene activity was measured by the addition of the beta-galactosidase substrate ONPG (in PBS with 5% NP-40). The resulting colorimetric reaction was measured in a spectrophotometric plate reader (Titertek Inc.) at […].
(§4) EC50, IC50 and Ki are presented as the negative of the calculated potency in Molar.

Histamine H2 = target: T2, Histamine H2 (Homo sapiens, UniProt P25021); assay: R-SAT assay, Histamine H2; type: cell-based
T2 construct: expressed in transfected cells; host or cells: NIH3T3
T2 sequence (P25021 whole entry): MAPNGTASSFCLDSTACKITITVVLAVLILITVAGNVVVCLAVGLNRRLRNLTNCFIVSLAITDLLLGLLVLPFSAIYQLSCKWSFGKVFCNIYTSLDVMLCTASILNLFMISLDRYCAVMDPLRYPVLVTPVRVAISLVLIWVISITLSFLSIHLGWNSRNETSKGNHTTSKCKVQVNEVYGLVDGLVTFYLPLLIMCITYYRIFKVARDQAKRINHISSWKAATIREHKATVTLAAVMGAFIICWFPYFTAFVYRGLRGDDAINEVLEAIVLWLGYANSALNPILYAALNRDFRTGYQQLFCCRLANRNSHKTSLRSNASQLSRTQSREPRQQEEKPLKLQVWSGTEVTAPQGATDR
Method: as §1, §2, §3, §4

Acetylcholine m5 = target: T3, Acetylcholine m5 (Homo sapiens, UniProt P08912); assay: R-SAT assay, Acetylcholine m5; type: cell-based
T3 construct: expressed in transfected cells; host or cells: NIH3T3
T3 sequence (P08912 1-532): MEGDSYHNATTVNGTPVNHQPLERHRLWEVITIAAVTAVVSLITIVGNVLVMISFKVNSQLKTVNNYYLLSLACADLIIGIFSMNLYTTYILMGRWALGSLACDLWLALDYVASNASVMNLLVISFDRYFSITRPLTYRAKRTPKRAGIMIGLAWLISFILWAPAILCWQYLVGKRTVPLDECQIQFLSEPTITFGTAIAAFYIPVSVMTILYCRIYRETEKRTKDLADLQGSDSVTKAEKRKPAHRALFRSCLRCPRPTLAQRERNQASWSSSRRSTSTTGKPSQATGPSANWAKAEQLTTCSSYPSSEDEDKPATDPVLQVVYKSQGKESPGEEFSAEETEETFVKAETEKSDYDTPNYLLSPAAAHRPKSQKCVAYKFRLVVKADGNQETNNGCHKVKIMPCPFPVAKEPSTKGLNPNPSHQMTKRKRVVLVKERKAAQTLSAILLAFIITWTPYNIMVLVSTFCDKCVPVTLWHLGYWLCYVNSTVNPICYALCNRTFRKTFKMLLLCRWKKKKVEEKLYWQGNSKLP
Method: as §1, §2
(§5) R-SAT assays were performed with minor modifications from that previously described (6). Briefly, NIH3T3 cells were grown in tissue culture treated rollerbottles to 40-50% confluence. Cells were transfected for 12-16 hours with plasmid DNAs using superfect (Qiagen Inc.) as per manufacture's protocols. R-SAT's were generally performed with 10 μg/rollerbottle of receptor and 50 μg/rollerbottle of Beta-galactosidase plasmid DNA. All receptor and G-protein constructs used were in the PSI mammalian expression vector (Promega Inc.). The transfected cells were then trypsinized and frozen in DMEM containing 10% DMSO. Frozen cells were later thawed, plated at 10,000-40,000 cells per well of a 96 ½ area plate that contained drug. Cells were then grown in a humidified atmosphere with 5% ambient CO2 for five days. Media was then removed from the plates and marker gene activity was measured by the addition of the beta-galactosidase substrate ONPG (in PBS with 5% NP-40). The resulting colorimetric reaction was measured in a spectrophotometric plate reader (Titertek Inc.) at […].
as §4

SST2 = target: T4, SST2 (Homo sapiens, UniProt P30874); assay: R-SAT assay, SST2; type: cell-based; conditions: percent maximal activation relative to control compound
T4 construct: expressed in transfected cells; host or cells: NIH3T3
Method: as §1, §2, §3, §4

Dopamine D5 = target: T5, Dopamine D5 (Homo sapiens, UniProt P21918); assay: R-SAT assay, Dopamine D5; type: cell-based
T5 construct: expressed in transfected cells; host or cells: NIH3T3
T5 sequence (P21918 whole entry): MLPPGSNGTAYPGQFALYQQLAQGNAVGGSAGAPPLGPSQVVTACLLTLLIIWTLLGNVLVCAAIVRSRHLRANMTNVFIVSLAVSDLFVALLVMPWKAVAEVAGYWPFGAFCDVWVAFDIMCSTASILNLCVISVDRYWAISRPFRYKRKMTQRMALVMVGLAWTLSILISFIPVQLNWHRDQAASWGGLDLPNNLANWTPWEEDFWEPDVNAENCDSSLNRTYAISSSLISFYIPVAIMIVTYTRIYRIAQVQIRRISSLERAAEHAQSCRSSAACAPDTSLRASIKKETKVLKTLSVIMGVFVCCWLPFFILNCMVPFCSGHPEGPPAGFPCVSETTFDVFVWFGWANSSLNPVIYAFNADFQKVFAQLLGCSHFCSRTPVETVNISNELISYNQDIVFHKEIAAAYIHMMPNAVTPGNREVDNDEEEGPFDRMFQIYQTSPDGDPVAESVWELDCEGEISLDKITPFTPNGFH
Method: as §1, §2, §3, §4

male NSA mice = assay: Locomotor activity in mice after i.v. injection; type: in vivo
Method: The test compound of Formula III was tested at 10 mg/kg, i.v. in male NSA mice. Locomotor activity was measured for 15 min following injection. The locomotor activity was decreased relative to sham injected animals. Within a few minutes into the session, the mice sat quietly in a corner of the chamber in a normal posture.
Following the initial experiment, a dose-response curves using 1, 3, and 10 mg/kg, i.v. were conducted. The effects of 10 mg/kg the test compound of Formula III were replicated.

Serotonin 5HT-1A = target: T6, Serotonin 5HT-1A (Homo sapiens, UniProt P08908); assay: R-SAT assay, Serotonin 5HT-1A; type: cell-based; conditions: competitive antagonist mode; percent maximal inhibition relative to control standard compound
T6 construct: expressed in transfected cells; host or cells: NIH3T3
T6 sequence (P08908 whole entry): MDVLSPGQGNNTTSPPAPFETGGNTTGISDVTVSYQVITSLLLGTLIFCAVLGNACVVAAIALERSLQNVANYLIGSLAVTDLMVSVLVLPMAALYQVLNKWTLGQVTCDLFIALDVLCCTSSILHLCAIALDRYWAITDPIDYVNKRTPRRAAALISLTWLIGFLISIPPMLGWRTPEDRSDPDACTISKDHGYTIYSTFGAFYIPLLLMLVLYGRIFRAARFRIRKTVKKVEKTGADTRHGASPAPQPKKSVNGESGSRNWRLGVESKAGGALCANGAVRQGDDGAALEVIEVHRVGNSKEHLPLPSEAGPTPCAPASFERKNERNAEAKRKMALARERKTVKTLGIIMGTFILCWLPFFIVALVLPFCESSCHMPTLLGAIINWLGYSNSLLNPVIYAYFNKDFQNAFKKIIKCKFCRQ
Method: as §1, §2, §3, §4

SST3 = target: T7, SST3 (Homo sapiens, UniProt P32745); assay: R-SAT assay, SST3; type: cell-based; conditions: percent maximal activation relative to control compound
T7 construct: expressed in transfected cells; host or cells: NIH3T3
Method: as §1, §2, §3, §4

CRF2b = target: T8, CRF2b (Homo sapiens, UniProt Q13324); assay: R-SAT assay, CRF2b; type: cell-based; conditions: percent maximal activation relative to control compound
T8 construct: expressed in transfected cells; host or cells: NIH3T3
Method: as §1, §2, §3, §4

Serotonin 5HT2a = target: T9, Serotonin 5HT2a (Homo sapiens, UniProt P28223); assay: R-SAT assay, Serotonin 5HT2a; type: cell-based
T9 construct: expressed in transfected cells; host or cells: NIH3T3
T9 sequence (P28223 whole entry): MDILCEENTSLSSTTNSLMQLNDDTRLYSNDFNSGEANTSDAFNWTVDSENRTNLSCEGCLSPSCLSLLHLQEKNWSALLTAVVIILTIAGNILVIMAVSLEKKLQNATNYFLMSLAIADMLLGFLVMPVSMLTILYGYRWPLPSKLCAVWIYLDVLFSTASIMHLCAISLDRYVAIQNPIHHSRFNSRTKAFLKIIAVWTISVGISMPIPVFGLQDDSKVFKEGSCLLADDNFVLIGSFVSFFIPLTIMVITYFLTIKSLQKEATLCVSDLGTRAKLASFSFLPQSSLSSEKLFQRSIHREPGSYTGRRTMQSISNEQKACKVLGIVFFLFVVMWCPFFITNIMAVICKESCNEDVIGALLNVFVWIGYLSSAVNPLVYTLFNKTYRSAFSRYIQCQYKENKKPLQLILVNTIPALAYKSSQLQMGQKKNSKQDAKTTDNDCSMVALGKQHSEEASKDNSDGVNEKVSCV
Method: as §1, §2, §3, §4

Dopamine D2 = target: T10, Dopamine D2 (Homo sapiens, UniProt P14416); assay: R-SAT assay, Dopamine D2; type: cell-based
T10 construct: expressed in transfected cells; host or cells: NIH3T3
T10 sequence (P14416 whole entry): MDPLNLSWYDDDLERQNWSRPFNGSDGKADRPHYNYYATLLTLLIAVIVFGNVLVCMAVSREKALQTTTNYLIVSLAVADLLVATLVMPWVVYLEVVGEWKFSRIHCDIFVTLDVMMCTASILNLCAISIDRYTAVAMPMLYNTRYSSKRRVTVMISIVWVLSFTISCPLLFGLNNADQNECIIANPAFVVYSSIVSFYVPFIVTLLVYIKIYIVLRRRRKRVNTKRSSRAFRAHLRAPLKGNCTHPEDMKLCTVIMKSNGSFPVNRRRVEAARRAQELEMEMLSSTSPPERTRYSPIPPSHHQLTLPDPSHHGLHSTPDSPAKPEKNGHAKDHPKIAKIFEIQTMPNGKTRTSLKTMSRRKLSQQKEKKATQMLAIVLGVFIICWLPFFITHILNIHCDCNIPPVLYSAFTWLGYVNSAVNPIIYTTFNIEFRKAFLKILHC
Method: as §1, §2, §3, §4

k opioid = target: T11, k opioid (Homo sapiens, UniProt P41145); assay: R-SAT assay, k opioid; type: cell-based; conditions: percent maximal activation relative to control compound
T11 construct: expressed in transfected cells; host or cells: NIH3T3
Method: as §1, §2, §3, §4

Beta Adrenergic 2 = target: T12, Beta Adrenergic 2 (Homo sapiens, UniProt P07550); assay: R-SAT assay, Beta Adrenergic 2; type: cell-based
T12 construct: expressed in transfected cells; host or cells: NIH3T3
T12 sequence (P07550 whole entry): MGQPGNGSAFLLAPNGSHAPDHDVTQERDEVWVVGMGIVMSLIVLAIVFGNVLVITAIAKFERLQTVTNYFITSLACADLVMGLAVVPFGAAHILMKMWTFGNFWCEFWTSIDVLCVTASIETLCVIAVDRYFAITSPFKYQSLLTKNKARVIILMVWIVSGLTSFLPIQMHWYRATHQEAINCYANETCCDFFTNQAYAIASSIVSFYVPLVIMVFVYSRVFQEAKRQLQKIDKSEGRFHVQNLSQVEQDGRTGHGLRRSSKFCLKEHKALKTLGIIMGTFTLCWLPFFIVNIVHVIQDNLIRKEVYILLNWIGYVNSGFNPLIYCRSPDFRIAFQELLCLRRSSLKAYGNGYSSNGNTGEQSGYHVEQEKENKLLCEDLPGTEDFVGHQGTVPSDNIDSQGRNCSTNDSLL
Method: as §1, §2, §3, §4

CRF1 = target: T13, CRF1 (Homo sapiens, UniProt P34998); assay: R-SAT assay, CRF1; type: cell-based; conditions: percent maximal activation relative to control compound
T13 construct: expressed in transfected cells; host or cells: NIH3T3
Method: as §1, §2, §3, §4

Serotonin 5HT7 = target: T14, Serotonin 5HT7 (Homo sapiens, UniProt P34969); assay: R-SAT assay, Serotonin 5HT7; type: cell-based; conditions: percent maximal activation relative to control compound
T14 construct: expressed in transfected cells; host or cells: NIH3T3
Method: as §1, §2, §3, §4

Serotonin 5HT2b = target: T15, Serotonin 5HT2b (Homo sapiens, UniProt P41595); assay: R-SAT assay, Serotonin 5HT2b; type: cell-based
T15 construct: expressed in transfected cells; host or cells: NIH3T3
T15 sequence (P41595 whole entry): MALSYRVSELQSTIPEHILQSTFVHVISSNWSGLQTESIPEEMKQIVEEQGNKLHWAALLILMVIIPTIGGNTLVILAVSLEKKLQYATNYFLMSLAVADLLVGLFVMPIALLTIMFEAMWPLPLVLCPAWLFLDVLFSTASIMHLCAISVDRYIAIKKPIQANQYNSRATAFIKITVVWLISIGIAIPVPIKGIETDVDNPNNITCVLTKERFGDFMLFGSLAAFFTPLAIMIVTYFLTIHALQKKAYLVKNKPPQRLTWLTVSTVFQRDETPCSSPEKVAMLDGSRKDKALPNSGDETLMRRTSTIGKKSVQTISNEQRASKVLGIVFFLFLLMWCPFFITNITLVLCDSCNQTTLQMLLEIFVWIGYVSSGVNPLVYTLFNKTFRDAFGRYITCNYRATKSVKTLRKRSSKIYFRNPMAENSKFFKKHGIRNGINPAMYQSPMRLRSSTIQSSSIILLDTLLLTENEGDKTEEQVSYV
Method: as §1, §2, §5, §4

Acetylcholine m3 = target: T16, Acetylcholine m3 (Homo sapiens, UniProt P20309); assay: R-SAT assay, Acetylcholine m3; type: cell-based
T16 construct: expressed in transfected cells; host or cells: NIH3T3
T16 sequence (P20309 whole entry): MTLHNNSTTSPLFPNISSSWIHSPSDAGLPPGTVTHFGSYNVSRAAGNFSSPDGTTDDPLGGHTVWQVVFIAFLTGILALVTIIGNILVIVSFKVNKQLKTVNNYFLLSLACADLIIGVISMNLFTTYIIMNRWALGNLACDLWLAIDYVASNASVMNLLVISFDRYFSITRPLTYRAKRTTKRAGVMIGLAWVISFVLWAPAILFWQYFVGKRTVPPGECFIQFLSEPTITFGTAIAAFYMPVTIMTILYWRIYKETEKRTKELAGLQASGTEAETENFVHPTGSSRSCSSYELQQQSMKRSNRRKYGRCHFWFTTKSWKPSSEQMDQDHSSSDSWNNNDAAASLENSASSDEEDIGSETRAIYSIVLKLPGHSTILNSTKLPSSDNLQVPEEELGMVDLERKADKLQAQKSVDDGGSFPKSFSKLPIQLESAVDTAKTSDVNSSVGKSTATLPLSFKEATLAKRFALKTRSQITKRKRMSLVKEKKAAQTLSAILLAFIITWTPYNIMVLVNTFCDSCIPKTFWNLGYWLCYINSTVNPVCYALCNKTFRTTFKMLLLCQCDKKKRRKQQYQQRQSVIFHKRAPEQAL
Method: as §1, §2, §3, §4

Beta Adrenergic 1 = target: T17, Beta Adrenergic 1 (Homo sapiens, UniProt P08588); assay: R-SAT assay, Beta Adrenergic 1; type: cell-based; conditions: percent maximal activation relative to control compound
T17 construct: expressed in transfected cells; host or cells: NIH3T3
Method: as §1, §2, §3, §4

SST5 = target: T18, SST5 (Homo sapiens, UniProt P35346); assay: R-SAT assay, SST5; type: cell-based; conditions: percent maximal activation relative to control compound
T18 construct: expressed in transfected cells; host or cells: NIH3T3
T18 sequence (P35346 whole entry, species assumed): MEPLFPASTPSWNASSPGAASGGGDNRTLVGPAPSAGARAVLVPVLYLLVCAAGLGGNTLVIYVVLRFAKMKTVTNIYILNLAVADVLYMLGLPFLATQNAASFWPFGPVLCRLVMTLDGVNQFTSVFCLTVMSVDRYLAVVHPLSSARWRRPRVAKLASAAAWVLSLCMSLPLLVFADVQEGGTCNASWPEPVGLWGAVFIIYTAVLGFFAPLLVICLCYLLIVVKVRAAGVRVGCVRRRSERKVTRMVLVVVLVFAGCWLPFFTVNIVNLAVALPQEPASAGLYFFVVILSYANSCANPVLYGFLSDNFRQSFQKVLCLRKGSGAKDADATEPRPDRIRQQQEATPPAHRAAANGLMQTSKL
Method: as §1, §2, §3, §4

Acetylcholine m1 = target: T19, Acetylcholine m1 (Homo sapiens, UniProt P11229); assay: R-SAT assay, Acetylcholine m1; type: cell-based
T19 construct: expressed in transfected cells; host or cells: NIH3T3
T19 sequence (P11229 whole entry): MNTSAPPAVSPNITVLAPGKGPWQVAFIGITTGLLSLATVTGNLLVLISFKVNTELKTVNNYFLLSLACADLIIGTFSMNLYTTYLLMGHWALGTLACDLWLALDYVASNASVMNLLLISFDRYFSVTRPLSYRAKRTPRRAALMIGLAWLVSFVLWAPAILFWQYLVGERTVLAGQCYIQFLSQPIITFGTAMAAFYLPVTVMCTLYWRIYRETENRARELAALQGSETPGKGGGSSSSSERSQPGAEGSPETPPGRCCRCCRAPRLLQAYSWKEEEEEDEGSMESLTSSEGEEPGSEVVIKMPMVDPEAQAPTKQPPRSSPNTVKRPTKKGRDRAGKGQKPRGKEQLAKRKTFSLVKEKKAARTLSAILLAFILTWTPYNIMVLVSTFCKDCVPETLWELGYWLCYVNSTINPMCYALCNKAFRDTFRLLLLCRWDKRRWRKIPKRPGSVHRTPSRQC
Method: as §1, §2, §3, §4

[1] = inverse agonist mode, percent maximal inhibition relative to repression of basal activity by a control standard compound
[2] = percent maximal activation relative to control compound
[3] = competitive antagonist mode, percent maximal inhibition relative to control standard compound

T1 sequence (P50406 whole entry): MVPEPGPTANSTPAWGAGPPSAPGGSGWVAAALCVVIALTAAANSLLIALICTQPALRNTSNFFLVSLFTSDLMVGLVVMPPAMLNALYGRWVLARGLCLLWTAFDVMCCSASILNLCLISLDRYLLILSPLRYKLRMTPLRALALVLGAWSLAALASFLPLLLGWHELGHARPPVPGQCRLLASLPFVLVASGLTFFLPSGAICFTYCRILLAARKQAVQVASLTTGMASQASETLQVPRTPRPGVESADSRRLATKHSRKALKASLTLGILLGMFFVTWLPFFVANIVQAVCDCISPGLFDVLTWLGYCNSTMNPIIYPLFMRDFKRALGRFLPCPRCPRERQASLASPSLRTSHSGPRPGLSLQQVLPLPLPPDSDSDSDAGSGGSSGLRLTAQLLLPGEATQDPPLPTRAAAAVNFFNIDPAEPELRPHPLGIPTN

SMILES: CN(C)CCC1(c2ccc(Cl)cc2)Cc2ccccc2C(=O)O1 (stereo not drawn) [Formula III]
- Agonist % Eff (Serotonin 5HT6): 0%
- Inverse Agonist % Inh (Histamine H2; [1]): 0%
- Agonist % Eff (Histamine H2; [2]): 0%
- Ki (Acetylcholine m5; competitive antagonist mode, negative of the calculated potency in Molar): > 2.24 µM
- Competitive Antagonist % Inh (Acetylcholine m5; [3]): 55%
- Agonist % Eff (Acetylcholine m5; [2]): 3.6%
- Agonist % Eff (SST2): 0%
- Competitive Antagonist % Inh (Dopamine D5; [3]): 0%
- Agonist % Eff (Dopamine D5; [2]): 0%
- locomotor activity (male NSA mice; 10 mg/kg i.v., male NSA mice, 15 min following injection, relative to sham injected animals): decreased
- behavioural observation (responsiveness, appearance) (male NSA mice; 10 mg/kg i.v., male NSA mice, during the session): responsive to sound and touch and otherwise appeared normal
- effects on locomotor activity in dose-response experiment (male NSA mice; dose-response 1, 3 and 10 mg/kg i.v., result stated for 10 mg/kg): replicated
- Competitive Antagonist % Inh (Serotonin 5HT-1A): 0%
- Agonist % Eff (SST3): 0%
- Agonist % Eff (CRF2b): 0%
- Inverse Agonist % Inh (Serotonin 5HT2a; [1]): 11.9%
- Agonist % Eff (Serotonin 5HT2a; [2]): 58%
- Competitive Antagonist % Inh (Dopamine D2; [3]): 13.2%
- Agonist % Eff (Dopamine D2; [2]): 13.6%
- Agonist % Eff (k opioid): 0%
- Competitive Antagonist % Inh (Beta Adrenergic 2; [3]): 0%
- Agonist % Eff (Beta Adrenergic 2; [2]): 0%
- Agonist % Eff (CRF1): 0%
- Agonist % Eff (Serotonin 5HT7): 0%
- Competitive Antagonist % Inh (Serotonin 5HT2b; [3]): 0%
- Inverse Agonist % Inh (Serotonin 5HT2b; [1]): 0%
- Agonist % Eff (Serotonin 5HT2b; [2]): 0%
- Competitive Antagonist % Inh (Acetylcholine m3; [3]): 28%
- Agonist % Eff (Acetylcholine m3; [2]): 1.8%
- Agonist % Eff (Beta Adrenergic 1): 0%
- Agonist % Eff (SST5): 0%
- Competitive Antagonist % Inh (Acetylcholine m1; [3]): 13%
- Agonist % Eff (Acetylcholine m1; [2]): 3%
